Measured values published in article PMC9841531, “Indole Derivatives as New Structural Class of Potent and Antiproliferative Inhibitors of Monocarboxylate Transporter 1 (MCT1; SLC16A1)” (Journal of Medicinal Chemistry, 2022).

Columns and labels:
[1] = test system: ABCB1-expressing A2780/ADR cells; assay: MTT-based efficacy (MDR-reversal) assay, 33 in combination with test compound, A2780/ADR; type: cell-based; conditions: A2780 ADR; 33 alone, 72 h; read-out: A2780/ADR cell toxicity 33 + 0.0 μM cmpd. GI50 ± SEM
Method: (§1) This sensitization is indicated by a shift of the concentration-effect curve of compound 33 from the right (=high concentrations of 33 needed to induce A2780/ADR cell death) to the left (=lower concentrations of 33 needed to induce A2780/ADR cell death). The concentration-effect curve of compound 33 in combination with 5 μM of either compound 24 or 30 resembles the concentration-effect curve of the sensitive cell line A2780. […] Thus, their potentiating effect with respect to the antiproliferative agent 33 against ABCB1-expressing A2780/ADR cells is due to the inhibition of ABCB1. Therefore, compounds 24 and 30 were dually effective against MCT1- and ABCB1-expressing cells (Table 5).
(§2) An MDR-reversal assay[2],[55]−[59] was used to investigate the ability to reverse ABCB1-mediated MDR in A2780/ADR cells toward the cytotoxic ABCB1 substrate 33. […] A dilution series of 33 at concentrations between 0.1 μM and 100 μM was generated, and 20 μL of each concentration was transferred onto the plates (final concentration: 0.01–10 μM). The plates were incubated for 72 h at 37 °C and a 5% CO2-humidified atmosphere, before subsequent processing with the regular MTT assay as described above. The observed effects of compounds 24 and 30 were compared to the effect of 33 alone on A2780/ADR cells as well as its sensitive counterpart A2780 (∼10,000 cells/well).

[2] = test system: MCT1-expressing A-549 cells; assay: MTT-based efficacy assay, 33 in combination with test compound, A-549; type: cell-based; conditions: Homo sapiens, A549; 33 alone, 72 h; read-out: A-549 cell toxicity 33 + 0 nM test cmpd. GI50 ± SEM
Method: MCT1 inhibition anticipates challenging cancer cell energy supply and, thus, increases the efficacy of anticancer agents.
For this purpose, 10 μL of compounds 24 or 30 (50 nM, 100 nM, or 500 nM) was transferred onto a colorless flat-bottom 96-well microplate and complemented with 180 μL of a cell suspension containing either approximately 5,000 A-549 cells. A dilution series of compound 33 at concentrations between 50 nM and 50 μM was generated, and 10 μL of each concentration was transferred onto the plate. The observed effects of compounds 24 and 30 were compared to the effect of compound 33 alone on A-549. The plates were incubated for 72 h at 37 °C and a 5% CO2-humidified atmosphere, before subsequent processing with the regular MTT assay as described above.[43]

[3] = test system: A2780 cells; assay: MTT-based cell toxicity of 33 on sensitive A2780 cells; conditions: Homo sapiens, 33 alone, 72 h, read-out: A2780 cell toxicity 33 + 0.0 μM cmpd. GI50 ± SEM
Method: as §1, §2

[4] = test system: A-549 cells; assay: cell cycle distribution analysis, PI flow cytometry; type: cell-based; conditions: 5 μM, 24 h
Method: The antineoplastic agent 33 (5 μM) was used as a reference. […] Compound 24 caused a disruption of the cell cycle of A-549 cancer cells, indicated by a shift from the predominant G0/G1 phase (Figure 8A) to the apoptotic sub-G1 phase as well as the G2/M phase (Figure 8B). A similar G2/M arrest could be observed for reference compound 33 (Figure 8C); however, MCT1 inhibitor 24 led to a larger fraction of cells into the sub-G1 phase, indicating induced apoptosis. This experiment discovered that compound 24 inhibits cell proliferation, causing cell cycle arrest and, eventually, apoptosis. To confirm our findings, we conducted an apoptosis assay using compound 24.
A standard PI staining procedure was used as described earlier[44]−[46] to determine the effect of compounds 24 and 33 on cell cycle progression, followed by flow cytometry analysis (FACS Aria SORP and FACS Aria Fusion, BD Biosciences, Franklin Lakes, NJ). In brief, A-549 cells were seeded onto a 6-well plate (250,000 cells/well) and incubated for 24 h at 37 °C under a 5% CO2-humidified atmosphere before being observed under a microscope. The cells were treated with compound 24 (5 μM) or 33 (5 μM) and further incubated for 24 h at 37 °C under a 5% CO2-humidified atmosphere. Then, the cells were harvested and washed twice with cold PBS (Genetix Biotech Asia, New Delhi, India) before being fixed overnight in ice-cold 70% (v/v) ethanol at 4 °C. The cells were again washed two times with PBS and subsequently resuspended with RNase (100 μg/mL; HiMedia, Mumbai, India) and their DNA was stained with PI (40 μg/mL; Sigma-Aldrich, Mumbai, India) before being incubated in the dark for 10 min. The DNA content was measured at the Indian Institute of Technology Bombay (IITB, Mumbai, India) by applying flow cytometry.

**Q.** How did the GI50 [1] turn out when COc1cccc2c1C(=O)c1c(O)c3c(c(O)c1C2=O)C[C@@](O)(C(=O)CO)C[C@@H]3O[C@H]1C[C@H](N)[C@H](O)[C@H](C)O1 [Compound 33, doxorubicin, reference compound] was run?
**A.** The GI50 was 802 ± 81 nM.

**Q.** What about the GI50 [2] of the same molecule?
**A.** The GI50 was 47.6 ± 0.7 nM.

**Q.** And the GI50 [3]?
**A.** Its GI50 is 19.4 ± 1.7 nM.

**Q.** And the “cells in G0/G1 phase” value [4]?
**A.** The value was 41.1%.

**Q.** And the “cells in G2/M phase” value [4]?
**A.** The value was 26.2%.

**Q.** And the “cells in S phase” value [4]?
**A.** The value was 27.4%.

**Q.** What about the “cells in Sub-G1 phase” value [4] of the same molecule?
**A.** The value was 4.00%.
